Results from ChEMBL document CHEMBL1133851, “Novel spermine-amino acid conjugates and basic tripeptides enhance cleavage of the hairpin ribozyme at low magnesium ion concentration” (Bioorg Med Chem Lett, 2001).
Where a SMILES comes first, the peptide text is derived from it. [ ]: non-standard residue; d: D form. ξ: configuration not given here. Dab = NCC[C@H](N)C(=O)O; Dap = NC[C@H](N)C(=O)O; ξDab = NCCC(N)C(=O)O; ξDap = NCC(N)C(=O)O

Legend:
[1] = test system: Hairpin ribozyme RNA
Description: Cleavage rate against hairpin ribozyme at 2 mM, in presence of 0.5 uM magnesium ions

[2] = test system: Hairpin ribozyme RNA; remark: listed apart in the source
Description: Cleavage rate against hairpin ribozyme at 5 mM with 0.5 uM magnesium ions

`N=C(N)NCCC[C@H](N)C(=O)O` showed a K obs [1] of 0.016 and a K obs [2] of 0.034.

For `NCCCC[C@H](N)C(=O)O`, the K obs [1] was 0.016 and the K obs [2] was 0.013.

With `NCCC(NC(=O)[C@@H](N)CCN)C(=O)O` (some centres not stated) (H-[Dab]-[ξDab]-OH) the K obs [1] was 0.021.

With `N[C@@H](Cc1c[nH]cn1)C(=O)O` the K obs [1] was 0.037 and the K obs [2] was 0.013.

`NCCCC(=O)O` gave a K obs [1] of 0.0088 and a K obs [2] of 0.023.

Work on `NCCCNCCCCNCCCN` yielded a K obs [1] of 0.073 and a K obs [2] of 0.065.

`NCC(=O)O` gave a K obs [1] of 0.017 and a K obs [2] of 0.03.

With `NCCC(=O)O` the K obs [1] was 0.018 and the K obs [2] was 0.03.

`NCCC(NC(=O)[C@@H](N)CN)C(=O)O` (some centres not stated) (H-[Dap]-[ξDab]-OH) gave a K obs [1] of 0.026.

In the case of `NCC[C@@H](N)C(=O)O`, the K obs [1] is reported as 0.023 and the K obs [2] is reported as 0.027.

For `NCCCC[C@@H](N)C(=O)O`, the K obs [1] was 0.004 and the K obs [2] was 0.026.

`NC[C@@H](N)C(=O)O` showed a K obs [1] of 0.02 and a K obs [2] of 0.022.

Work on `N[C@H](Cc1c[nH]cn1)C(=O)O` yielded a K obs [1] of 0.0085 and a K obs [2] of 0.026.

`NCC(NC(=O)[C@@H](N)CN)C(=O)O` (some centres not stated) (H-[Dap]-[ξDap]-OH) gave a K obs [1] of 0.024.

`NC[C@H](N)C(=O)O` was tested, and the K obs [1] was 0.061 and the K obs [2] was 0.045.

Compound `NCCC[C@@H](N)C(=O)O` has a K obs [1] of 0.0086 and a K obs [2] of 0.034.

Compound `NCC[C@H](N)C(=O)NC(CN)C(=O)O` (some centres not stated) (H-[Dab]-[ξDap]-OH) has a K obs [1] of 0.02.

`NCC[C@H](N)C(=O)O` gave a K obs [1] of 0.085 and a K obs [2] of 0.08.
